Data on six compounds can be found in paper PMC6624297 (Cell Death & Disease, 2019).

Structures are written as SMILES.

One data set concerns the target T1, human TS (hTS) (Homo sapiens, UniProt P04818).
T1 construct: purchased ProSpec-Tany
As to the kind of experiment: Thymidylate synthase (TS) spectrophotometric assay. It is filed as biochemical. The following applies: averages from triplicate assays. The protocol: Recombinant human thymidylate synthase purchased from ProSpec-Tany Company. TS was assayed spectrophotometrically at 30 °C and pH 7.4 in a mixture containing 0.1 M 2-mercaptoethanol, 0.0003 M (6R,S)-tetrahydrofolate, 0.012 M formaldehyde, 0.02 M MgCl2, 0.001 M dUMP, 0.04 M Tris–HCl, 30 nM hTS, and 0.00075 M NaEDTA. […] The reaction was initiated by the addition of an amount of enzyme yielding a change in absorbance at 340 nm of 0.016/min in the absence of inhibitor.

The next data set addresses BRaf kinase (Homo sapiens, UniProt P15056). In words: ADP-Glo kinase assay, BRaf. Format: biochemical. The conditions noted are these: averages from triplicate assays. On the procedure:
(§1) The ADP-Glo™ kinase assay (Promega, Madison, WI) was used to screen target compounds for their inhibition effects for BRaf, EGFR kinase. The kinase assay was carried out in a 96-well plate, in a volume of 25 μL HEPES (pH 7.3) solvent containing 1.6 μg/mL EGF, and 20 ng of EGFR kinase, or 50 ng BRaf kinase, and 10 μM ATP (Promega, Madison, WI). […] Reactions in each well were started immediately by adding ATP and kept going for half an hour under 30 °C in a constant temperature incubator (Bluepard, Shanghai, China). After the plate cooled for 5 min at room temperature, 25 μl of ADP-Glo reagent was added into each well to stop the reaction and consume the remaining […] within 40 min. At the end, 50 μl of kinase detection reagent was added into the well and incubated for 1 h to produce a luminescence signal.

The target of the next data set is EGFR kinase (Homo sapiens, UniProt P00533). As to the kind of experiment: ADP-Glo kinase assay, EGFR. It is filed as biochemical. The following applies: averages from triplicate assays. On the procedure:
as §1

Another data set deals with A549 cells. In words: MTT assay A549. It is filed as cell-based, human. The conditions noted are these: Homo sapiens, A549, 24h of treatment, mean ± SD. The protocol:
(§2) Details are given in Supplementary Materials and Methods. Using probability unit and weighted regression method to calculate the IC50 value of compounds.
(§3) Total cells in the logarithmic growth phase were collected, digested using 0.25% pancreatic enzymes, and then diluted into single-cell suspensions using phosphate-buffered solution (PBS). These cells were seeded into 96-well plates at 4× 10^3-5× 10^3 cells per well (100 µL per well) and then A549, H460, OVCAR-3, SGC7901, MDA-MB-231, HCT116 and HepG2 were cultured at 37°Cin an incubator containing 5% CO2. After cell complete attachment, 100 µL of different concentrations of compounds (0.625 μM, 1.25 μM, 2.5μM, 5 μM, 10 μM) were added to the cells after the nutrient solution in each well was discarded, while no compound except 0.1% DMSO was added to cells in the control group; at the same time, each concentration was set up to 5 wells. In addition, 5 wells in each 96-well plate only received 100 µL of nutrient solution as a blank control. The plates were taken out after the cells were incubated with compounds for 24 h, and 20 µL of MTT solution (5 mg/mL) (Wuhan Boster Biotechnology Limited Company, Wuhan, China; item No. AR1156) was added into all the wells. After another time of incubation for 4 h at 37 °C, the nutrient solution in each well was discarded slowly, and 150 µL of DMSO was added to each well. The plates were shaken on a shaking table for 20 min. When the crystals were fully dissolved, the blank wells were used to zero the plate reader. The optical density (OD) of each well was detected at 490 nm. The IC50 value was determined as the concentration of the inhibitor that caused 50% inhibition. Using probability unit and weighted regression method to calculate the IC50 value of compounds.
A general note: Tetrazolium dyes change colour on reduction, which living cells bring about.

A further data set relates to OVCAR-3 cells. In words: MTT assay OVCAR-3. Format: cell-based. The following applies: Homo sapiens, 24h of treatment, mean ± SD. The protocol: as §2, §3
Another data set has as its system SGC7901 cells. In words: MTT assay SGC7901. Format: cell-based. The conditions noted are these: Homo sapiens, SGC-7901, 24h of treatment, mean ± SD. On the procedure:
as §2, §3

The subject of the next data set is HCT-116 cells. In words: MTT assay HCT-116. It is filed as cell-based. The following applies: Homo sapiens, 24h of treatment, mean ± SD. The protocol:
as §2, §3

The next data set relates to MDA-MB-231 cells. As to the kind of experiment: MTT assay MDA-MB-231. The following applies: Homo sapiens, 24h of treatment, mean ± SD. It is filed as cell-based. The protocol:
as §2, §3

A further data set concerns HepG2 cells. As to the kind of experiment: MTT assay HepG2. The conditions noted are these: Homo sapiens, 24h of treatment, mean ± SD. It is filed as cell-based. On the procedure:
as §2, §3

Sequence of BRaf kinase (P15056 whole entry): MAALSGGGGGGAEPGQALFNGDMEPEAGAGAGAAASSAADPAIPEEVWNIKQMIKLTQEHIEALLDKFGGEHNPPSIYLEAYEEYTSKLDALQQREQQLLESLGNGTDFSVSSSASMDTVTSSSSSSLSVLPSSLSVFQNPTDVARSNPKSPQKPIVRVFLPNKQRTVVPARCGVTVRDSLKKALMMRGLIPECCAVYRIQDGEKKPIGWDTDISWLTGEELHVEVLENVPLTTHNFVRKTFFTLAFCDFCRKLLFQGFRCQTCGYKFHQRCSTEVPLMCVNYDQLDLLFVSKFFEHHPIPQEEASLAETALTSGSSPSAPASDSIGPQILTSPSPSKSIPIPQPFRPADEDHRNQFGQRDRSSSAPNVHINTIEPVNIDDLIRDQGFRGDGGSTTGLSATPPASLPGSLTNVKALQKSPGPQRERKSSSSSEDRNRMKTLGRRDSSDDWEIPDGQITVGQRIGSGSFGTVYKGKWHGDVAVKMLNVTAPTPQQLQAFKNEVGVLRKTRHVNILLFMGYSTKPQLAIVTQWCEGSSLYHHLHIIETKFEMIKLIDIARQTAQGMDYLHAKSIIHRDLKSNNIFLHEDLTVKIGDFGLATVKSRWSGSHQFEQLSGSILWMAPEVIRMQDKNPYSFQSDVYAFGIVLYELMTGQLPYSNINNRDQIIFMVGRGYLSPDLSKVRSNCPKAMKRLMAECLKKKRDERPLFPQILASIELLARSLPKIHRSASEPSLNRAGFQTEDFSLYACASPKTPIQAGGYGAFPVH
Sequence of EGFR kinase (P00533 25-1210): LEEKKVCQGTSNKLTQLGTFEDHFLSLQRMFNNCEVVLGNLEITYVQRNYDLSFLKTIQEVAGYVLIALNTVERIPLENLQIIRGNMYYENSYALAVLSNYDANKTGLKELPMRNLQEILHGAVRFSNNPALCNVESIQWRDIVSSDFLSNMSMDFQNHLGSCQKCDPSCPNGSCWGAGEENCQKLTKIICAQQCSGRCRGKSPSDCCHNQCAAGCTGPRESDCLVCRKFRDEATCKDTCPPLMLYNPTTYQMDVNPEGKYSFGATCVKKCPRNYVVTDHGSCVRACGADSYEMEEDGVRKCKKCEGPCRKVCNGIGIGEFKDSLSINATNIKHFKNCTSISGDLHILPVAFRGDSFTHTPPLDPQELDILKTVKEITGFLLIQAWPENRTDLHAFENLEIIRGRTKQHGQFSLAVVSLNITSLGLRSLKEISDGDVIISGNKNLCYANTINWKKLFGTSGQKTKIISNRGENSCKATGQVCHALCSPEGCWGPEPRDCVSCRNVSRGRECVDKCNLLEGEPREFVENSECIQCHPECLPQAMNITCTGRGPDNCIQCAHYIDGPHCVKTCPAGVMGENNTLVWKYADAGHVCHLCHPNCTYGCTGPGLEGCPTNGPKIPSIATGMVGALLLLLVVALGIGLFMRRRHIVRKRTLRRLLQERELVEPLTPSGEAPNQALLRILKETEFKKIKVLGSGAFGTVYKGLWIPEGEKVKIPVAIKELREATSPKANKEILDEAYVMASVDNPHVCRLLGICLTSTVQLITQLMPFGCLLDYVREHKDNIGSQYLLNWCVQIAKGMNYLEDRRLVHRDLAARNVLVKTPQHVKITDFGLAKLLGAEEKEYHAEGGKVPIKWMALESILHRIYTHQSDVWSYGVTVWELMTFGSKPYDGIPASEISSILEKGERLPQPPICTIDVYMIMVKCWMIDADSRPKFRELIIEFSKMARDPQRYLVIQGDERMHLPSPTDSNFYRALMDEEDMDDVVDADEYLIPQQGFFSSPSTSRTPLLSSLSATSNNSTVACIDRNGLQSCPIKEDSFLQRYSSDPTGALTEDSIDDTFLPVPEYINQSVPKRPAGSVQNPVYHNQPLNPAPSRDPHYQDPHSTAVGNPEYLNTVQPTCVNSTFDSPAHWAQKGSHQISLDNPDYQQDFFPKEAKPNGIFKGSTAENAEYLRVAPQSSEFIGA
T1 sequence (P04818 whole entry): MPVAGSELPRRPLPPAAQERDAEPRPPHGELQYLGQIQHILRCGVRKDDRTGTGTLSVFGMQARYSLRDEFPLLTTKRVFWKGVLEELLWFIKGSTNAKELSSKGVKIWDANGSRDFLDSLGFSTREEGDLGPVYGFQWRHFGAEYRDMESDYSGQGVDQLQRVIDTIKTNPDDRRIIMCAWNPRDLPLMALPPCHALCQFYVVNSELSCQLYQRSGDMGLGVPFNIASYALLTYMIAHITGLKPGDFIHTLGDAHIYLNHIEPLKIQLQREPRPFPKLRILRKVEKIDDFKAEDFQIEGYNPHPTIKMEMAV

In the case of `Cc1cccc(NC(=O)Nc2ccccc2NS(=O)(=O)c2c[nH]c(=O)[nH]c2=O)c1` [Compound L14h, N'-(3-methylphenyl)-2-(2,4-dihydroxypyrimidine-5-sulfonamido)phenylurea], the melting point (as a rule, the temperature, or range, at which the solid turns liquid) was in the range of 155 to 158 °C. In addition, the midpoint of inhibition on human TS (hTS), the IC50, lay at 3.52 µM. Further, the IC50 (commonly the concentration that inhibits the measured activity by half) at BRaf kinase amounted to 3.61 µM. The IC50 against EGFR kinase stood at 4.28 µM. Inhibition in the data set on A549 cells was half-maximal at 1.45 ± 0.06 µM (IC50). Moreover, the IC50 in the data set on OVCAR-3 cells came to 7.3 ± 0.68 µM. Besides, in the data set with SGC7901 cells, the IC50 was 3.3 ± 0.15 µM. Moreover, in the data set with HCT-116 cells, the IC50 was 5.39 ± 0.41 µM. In the data set with MDA-MB-231 cells, this compound registered an IC50 of 7.16 ± 0.9 µM. In addition, the IC50 in the data set on HepG2 cells was above 10 µM.

Consider `O=C(Nc1cccc(Cl)c1)Nc1cccc(NS(=O)(=O)c2c[nH]c(=O)[nH]c2=O)c1` [Compound L15e, N'-(3-chlorophenyl)-3-(2,4-dihydroxypyrimidine-5-sulfonamido)phenylurea], for which the melting point fell in the range of 162 to 166 °C. At human TS (hTS), this compound displayed an IC50 of 2.17 µM. The IC50 against BRaf kinase came out at 2.96 µM. At EGFR kinase, this compound displayed an IC50 of 4.37 µM. In the data set on A549 cells, this compound registered an IC50 of 0.87 ± 0.28 µM. In the data set on OVCAR-3 cells, the IC50 came out at 1.19 ± 0.49 µM. The compound also registered a half-maximal inhibitory concentration (IC50) in the data set with SGC7901 cells of 2.58 ± 0.43 µM. Moreover, the IC50 with HCT-116 cells stood at 3.3 ± 0.07 µM. The compound also had an IC50 in the data set on MDA-MB-231 cells of 3.13 ± 0.09 µM. The midpoint of inhibition in the data set with HepG2 cells, the IC50, lay at 2.29 ± 0.29 µM.

`O=C(Nc1ccc(Cl)cc1)Nc1cccc(NS(=O)(=O)c2c[nH]c(=O)[nH]c2=O)c1` [Compound L15f, N'-(4-chlorophenyl)-3-(2,4-dihydroxypyrimidine-5-sulfonamido)phenylurea] showed a melting point of 169 to 171 °C. The compound also had an IC50 against human TS (hTS) of 1.55 µM. Besides, inhibition at BRaf kinase was half-maximal at 2.68 µM (IC50). Also, half-maximal inhibition against EGFR kinase (IC50) was put at 5.54 µM. In the data set with A549 cells, the IC50 turned out to be 1.01 ± 0.11 µM. In the data set with OVCAR-3 cells, this compound returned an IC50 of 1.49 ± 0.28 µM. Also, in the data set with SGC7901 cells, the IC50 is 4.28 ± 0.67 µM. Also, half-maximal inhibition in the data set with HCT-116 cells (IC50) was put at 7.61 ± 0.04 µM. The IC50 in the data set on MDA-MB-231 cells is 3.2 ± 0.62 µM. This compound returned an IC50 in the data set with HepG2 cells of 3.07 ± 0.29 µM.

`O=C(Nc1ccc(Cl)cc1)Nc1ccccc1NS(=O)(=O)c1c[nH]c(=O)[nH]c1=O` [Compound L14f, N'-(4-chlorophenyl)-2-(2,4-dihydroxypyrimidine-5-sulfonamido)phenyl urea] yielded a melting point of 160 to 163 °C. This compound also yielded an IC50 at human TS (hTS) of 2.12 µM. At BRaf kinase, the midpoint of inhibition, the IC50, lay at 1.71 µM. Also, the IC50 against EGFR kinase is 2.23 µM. In addition, in the data set with A549 cells, the IC50 was 1.38 ± 0.27 µM. This compound displayed an IC50 in the data set on OVCAR-3 cells of 6.52 ± 0.5 µM. In addition, the IC50 in the data set on SGC7901 cells is 3.98 ± 0.33 µM. In the data set on HCT-116 cells, this compound yielded a half-maximal inhibitory concentration (IC50) of 4.22 ± 0.31 µM. In the data set on MDA-MB-231 cells, this compound showed an IC50 of 4.54 ± 0.41 µM. Further, in the data set on HepG2 cells, it took 1.62 ± 0.1 µM to reach half-maximal inhibition (IC50).

`O=C(Nc1cccc(NS(=O)(=O)c2c[nH]c(=O)[nH]c2=O)c1)Nc1ccccc1Cl` [Compound L15d, N'-(2-chlorophenyl)-3-(2,4-dihydroxypyrimidine-5-sulfonamido)phenylurea]: the melting point was in the range of 159 to 162 °C. The compound also showed a half-inhibitory concentration (IC50) against human TS (hTS) of 3.81 µM. The compound also showed an IC50 against BRaf kinase of 4.09 µM. Moreover, the IC50 at EGFR kinase was found to be 7.65 µM. Besides, the IC50 with A549 cells stood at 1.87 ± 0.12 µM. For the same compound, the IC50 in the data set with OVCAR-3 cells was 6.3 ± 0.25 µM. The compound also gave an IC50 with SGC7901 cells of 5.25 ± 0.81 µM. This compound also showed an IC50 with HCT-116 cells of 2.65 ± 0.33 µM. This compound also showed an IC50 in the data set with MDA-MB-231 cells of 2.04 ± 0.29 µM. Besides, the IC50 in the data set on HepG2 cells is 4.97 ± 0.36 µM.

Take `Cc1ccccc1NC(=O)Nc1cccc(NS(=O)(=O)c2c[nH]c(=O)[nH]c2=O)c1` [Compound L15g, N'-(2-methylphenyl)-3-(2,4-dihydroxypyrimidine-5-sulfonamido)phenyl urea]: the melting point fell in the range of 163 to 167 °C. For the same compound, on human TS (hTS), the IC50 was above 10 µM. Also, the concentration for half-maximal inhibition (IC50) against BRaf kinase is above 10 µM. The compound also displayed an IC50 at EGFR kinase above 10 µM. Also, half-maximal inhibition with A549 cells (IC50) was put at 8.75 ± 0.61 µM. Also, the IC50 in the data set on OVCAR-3 cells is above 10 µM. The IC50 with SGC7901 cells worked out at 7.04 ± 0.87 µM. Further, half-maximal inhibition in the data set on HCT-116 cells (IC50) required 6.41 ± 1.83 µM. This compound showed an IC50 in the data set on MDA-MB-231 cells above 10 µM. Also, the IC50 with HepG2 cells came out at 7.66 ± 0.78 µM.
